In patent US5646148A, “HIV protease inhibitors useful for the treatment of AIDS” (Merck & Co., Inc., priority 1995, dated 1997):

Tests used:
HIV-1 = experiment: Cell spread assay: inhibition of the spread of HIV in cell culture (MT-4 T-lymphoid cells, p24); format: cell-based; details: Human immunodeficiency virus 1, 72 h, MT-4 T-lymphoid cells infected with HIV-1 (wild-type), 24 h preincubation, then 3 additional days with inhibitor, read-out: CIC95, inhibitor concentration which reduced the spread of infection by at least 95%
Protocol: Inhibition of the spread of HIV in cell culture was measured according to Nunberg, J. H. et al., J. Virol. 65, 4887 (1991). In this assay, MT-4 T-lymphoid cells were infected with HIV-1 (wild-type, unless otherwise indicated) by using a predetermined inoculum, and cultures were incubated for 24 h. At this time, ≤1% of the cells were positive by indirect immunofluorescence. Cells were then extensively washed and distributed into 96-well culture dishes. Serial twofold dilutions of inhibitor were added to the wells, and cultures were continued for 3 additional days. At 4 days postinfection, 100% of the cells in control cultures were infected. HIV-1 p24 accumulation was directly correlated with virus spread. The cell culture inhibitory concentration was defined as the inhibitor concentration in nanomoles/liter which reduced the spread of infection by at least 95%, or CIC95. The CIC95 for compound A is 25 nM.
INHIBITION OF VIRUS SPREAD
A. Preparation of HIV-infected MT-4 cell Suspension. […]
The concentration of HIV p24 antigen is measured by an enzyme immunoassay, described as follows. Aliquots of p24 antigen to be measured are added to microwells coated with a monoclonal antibody specific for HIV core antigen. […]

HIV protease = biological target: T1, HIV protease (Human immunodeficiency virus type 1 group M subtype B, UniProt P04585); experiment: Assay for Inhibition of Microbial Expressed HIV Protease; format: biochemical; details: protease expressed in Eschericia coli; peptide substrate Val-Ser-Gln-Asn-(betanapthyl)Ala-Pro-Ile-Val; 50 mM Na acetate, pH 5.5, 30° C., 1 hour; HPLC
T1 construct: the protease expressed in Eschericia coli; made in house; host or cells: Escherichia coli
Protocol: Inhibition studies of the reaction of the protease expressed in Eschericia coli with a peptide substrate [Val-Ser-Gln-Asn-(betanapthyl)Ala-Pro-Ile-Val, 0.5 mg/mL at the time the reaction is initiated] were in 50 mM Na acetate, pH 5.5, at 30° C. for 1 hour. Various concentrations of inhibitor in 1.0 μl DMSO were added to 25 μl of the peptide solution in water. The reaction is initiated by the addition of 15 μl of 0.33 nM protease (0.11 ng) in a solution of 0.133M Na acetate pH 5.5 and 0.1% bovine serum albumin. The reaction was quenched with 160 μl of 5% phosphoric acid. Products of the reaction were separated by HPLC (VYDAC wide pore 5 cm C-18 reverse phase, acetonitrile gradient, 0.1% phosphoric acid). The extent of inhibition of the reaction was determined from the peak heights of the products.

CC(C)(C)NC(=O)C1CN(Cc2cnc3occc3c2)CCN1CC(O)CC(Cc1ccccc1)C(=O)NC1c2ccccc2CC1O [Compound A, N-(2(R)-hydroxy-1(S)-indanyl)-2(R)-phenylmethyl-4(S)-hydroxy-5-(1-(4-(3-furo[2,3-b]pyridylmethyl)-2(S)-N'-(t-butylcarboxamido)-piperazinyl))pentaneamide]
IC95 (HIV-1): 0.025 µM | IC50 (HIV protease): ~0.27 nM
